In patent US8669249B2, “Poly (ADP-ribose) polymerase (PARP) inhibitors” (Takeda Pharmaceutical Company Limited, priority 2009, dated 2014):

Key:
PARP = biological target: T1, PARP (Homo sapiens, UniProt P09874); assay: PARP ELISA (ELISA-based colorimetric PARP/Apoptosis Assay kit, Trevigen); format: biochemical; conditions: pIC50=-log10 IC50, IC50 in mol/L; inhibition of PARP catalytic activity
T1 construct: purchased Trevigen 4684-096-K HT (kit); 4684-096-01 (PARP enzyme)
Description: Inhibition Constant (IC50) from PARP ELISA
After 10 minutes of catalysis the reaction is quenched by solvent aspiration followed by irrigation of the assay wells 4 times with phosphate buffered saline (PBS) containing 0.1% t-Octylphenoxypolyethoxyethanol (Triton® X-100). Mouse Anti-poly ADP ribose (PAR) monoclonal antibody, goat antimouse immunoglobulin G (IgG)-horse radish peroxidase (HRP) conjugate and HRP substrate are added according to the manufacture's specifications to generate a colorimetric signal proportional to PARP catalytic activity.

[1] = biological target: T2, catalytic domain of Human PARP (Homo sapiens, UniProt P09874); assay: Biacore surface plasmon resonance affinity assay; format: binding; conditions: pKD=-log10 KD, KD in mol/L; Biacore T100, 25° C.; read-out: pKD (converted)
T2 construct: The catalytic domain of Human PARP was cloned and prepared; made in house
T2 sequence (P09874 788-1014 limits assumed): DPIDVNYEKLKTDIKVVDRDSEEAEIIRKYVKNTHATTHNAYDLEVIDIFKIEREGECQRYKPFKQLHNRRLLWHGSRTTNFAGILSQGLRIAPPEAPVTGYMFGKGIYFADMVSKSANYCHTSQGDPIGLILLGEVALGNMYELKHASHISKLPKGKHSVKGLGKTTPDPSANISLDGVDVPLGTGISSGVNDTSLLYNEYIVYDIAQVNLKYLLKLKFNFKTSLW
In short: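 Binding at 25° C on Biacore T100: 1 min compound association then 5 min dissociation (50 μL/min) over immobilized PARP catalytic domain, buffer HBS-P plus 1% DMSO, 0.5 mM TCEP, 5 mM MgCl2, 2-fold dilution series. KD derived as koff/kon from fitted association and dissociation phases.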

T1 sequence (P09874 whole entry): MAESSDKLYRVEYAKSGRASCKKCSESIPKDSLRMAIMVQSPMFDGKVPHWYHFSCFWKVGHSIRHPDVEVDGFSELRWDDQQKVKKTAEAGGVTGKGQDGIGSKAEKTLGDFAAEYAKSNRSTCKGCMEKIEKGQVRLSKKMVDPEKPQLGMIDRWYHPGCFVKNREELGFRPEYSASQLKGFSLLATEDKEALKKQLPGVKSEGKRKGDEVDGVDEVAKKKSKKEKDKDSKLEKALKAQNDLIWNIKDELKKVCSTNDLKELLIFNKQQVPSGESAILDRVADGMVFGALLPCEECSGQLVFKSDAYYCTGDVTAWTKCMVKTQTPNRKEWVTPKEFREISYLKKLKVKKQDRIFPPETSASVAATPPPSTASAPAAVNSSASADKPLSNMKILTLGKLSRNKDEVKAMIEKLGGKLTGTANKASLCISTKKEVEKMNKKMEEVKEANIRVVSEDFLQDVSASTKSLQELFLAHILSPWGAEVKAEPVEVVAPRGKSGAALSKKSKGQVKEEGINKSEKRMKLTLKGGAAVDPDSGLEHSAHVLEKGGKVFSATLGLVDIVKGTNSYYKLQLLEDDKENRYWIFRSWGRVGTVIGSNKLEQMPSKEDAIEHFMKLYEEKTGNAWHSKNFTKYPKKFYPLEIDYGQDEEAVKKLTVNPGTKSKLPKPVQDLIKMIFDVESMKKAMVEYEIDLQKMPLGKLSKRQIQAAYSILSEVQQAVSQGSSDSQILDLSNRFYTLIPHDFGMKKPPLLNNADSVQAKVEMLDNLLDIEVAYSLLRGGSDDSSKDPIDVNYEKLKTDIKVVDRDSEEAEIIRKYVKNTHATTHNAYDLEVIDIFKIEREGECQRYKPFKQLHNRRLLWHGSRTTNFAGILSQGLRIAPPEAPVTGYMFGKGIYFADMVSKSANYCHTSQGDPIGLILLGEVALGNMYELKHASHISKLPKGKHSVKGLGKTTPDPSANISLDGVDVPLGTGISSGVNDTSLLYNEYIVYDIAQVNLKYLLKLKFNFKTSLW

Compound	IC50 (PARP) [nM]	Kd [1] [µM]
CC1Oc2ccc(CN3CCN(c4ccc(NC(=O)C5CC5)cc4)CC3)cc2NC1=O (centres unmarked) [Compound 247, N-(4-(4-((2-methyl-3-oxo-3,4-dihydro-2H-benzo[b][1,4]oxazin-6-yl)methyl)piperazin-1-yl)phenyl)cyclopropanecarboxamide]	≥ 126	
CCNC(=O)c1ccc(N2CCN(Cc3cc(F)c4c(c3)NC(=O)C(C)O4)CC2)nc1 (centres unmarked) [Compound 315, N-Ethyl-6-(4-((8-fluoro-2-methyl-3-oxo-3,4-dihydro-2H-benzo[b][1,4]oxazin-6-yl)methyl)piperazin-1-yl)nicotinamide]	50.1	
CC(C)(C)OC(=O)N1CCN(Cc2ccc3c(c2)NC(=O)CO3)CC1 [Compound 357, tert-Butyl 4-((3-oxo-3,4-dihydro-2H-benzo[b][1,4]oxazin-6-yl)methyl)piperazine-1-carboxylate]	> 200	
CC(=O)Nc1ccc(N2CCN(Cc3ccc4c(c3)NC(=O)C(C)O4)CC2)cc1 (centres unmarked) [Compound 245, N-(4-(4-((2-Methyl-3-oxo-3,4-dihydro-2H-benzo[b][1,4]oxazin-6-yl)methyl)piperazin-1-yl)phenyl)acetamide]	≥ 126	
CCOC(=O)c1ccc(N2CCC(Oc3ccc4c(c3)NC(=O)C(C)O4)CC2)cc1 (centres unmarked) [Compound 394, Ethyl 4-(4-(2-methyl-3-oxo-3,4-dihydro-2H-benzo[b][1,4]oxazin-6-yloxy)piperidin-1-yl)benzoate]	> 200	
Cc1c(CN2CCN(c3ccc(Cl)cc3)CC2)ccc2c1NC(=O)C(C)O2 (centres unmarked) [Compound 325, 6-((4-(4-Chlorophenyl)piperazin-1-yl)methyl)-2,5-dimethyl-2H-benzo[b][1,4]oxazin-3(4H)-one]	> 200	
CC(C)NC(=O)c1ccc(N2CCC(Cc3ccc4c(c3)NC(=O)C(C)O4)CC2)cc1 (centres unmarked) [Compound 391, N-Isopropyl-4-(4-((2-methyl-3-oxo-3,4-dihydro-2I-benzo[b][1,4]oxazin-6-yl)methyl)piperidin-1-yl)benzamide]	> 200	
CC1Oc2ccc(CN3CCN(c4ccc(NC(=O)c5ccccc5)cc4)CC3)cc2NC1=O (centres unmarked) [Compound 248, N-(4-(4-((2-Methyl-3-oxo-3,4-dihydro-2H-benzo[b][1,4]oxazin-6-yl)methyl)piperazin-1-yl)phenyl)benzamide]	≥ 126	
Cc1c(CN2CCC(c3ccc(Cl)cc3)CC2)ccc2c1NC(=O)C(C)O2 (centres unmarked) [Compound 327, 6-((4-(4-Chlorophenyl)piperidin-1-yl)methyl)-2,5-dimethyl-2H-benzo[b][1,4]oxazin-3(4H)-one]	> 200	
Cc1cc2c(cc1CN1CCC(c3ccc(Cl)cc3)CC1)NC(=O)C(C)O2 (centres unmarked) [Compound 322, 6-((4-(4-Chlorophenyl)piperidin-1-yl)methyl)-2,7-dimethyl-2H-benzo[b][1,4]oxazin-3(4H)-one]	> 200	
CC1Oc2ccc(CN3CCN(c4ccc(C(=O)N(C)C)cc4)CC3)cc2NC1=O (centres unmarked) [Compound 378, N,N-Dimethyl-4-(4-((2-methyl-3-oxo-3,4-dihydro-2H-benzo[b][1,4]oxazin-6-yl)methyl)piperazin-1-yl)benzamide]	> 200	
CC1Oc2c(Cl)cc(CN3CCC(c4ccc(Cl)cc4)CC3)cc2NC1=O (centres unmarked) [Compound 165, 8-Chloro-6-((4-(4-chlorophenyl)piperidin-1-yl)methyl)-2-methyl-2H-benzo[b][1,4]oxazin-3(4H)-one]	≥ 126	
CC1Oc2ccc(OC3CCN(c4ccc(C(=O)NC5CC5)cc4)CC3)cc2NC1=O (centres unmarked) [Compound 397, N-Cyclopropyl-4-(4-(2-methyl-3-oxo-3,4-dihydro-2H-benzo[b][1,4]oxazin-6-yloxy)piperidin-1-yl)benzamide]	> 200	
CCC(=O)Nc1ccc(N2CCN(Cc3ccc4c(c3)NC(=O)C(C)O4)CC2)cc1 (centres unmarked) [Compound 246, N-(4-(4-((2-Methyl-3-oxo-3,4-dihydro-2H-benzo[b][1,4]oxazin-6-yl)methyl)piperazin-1-yl)phenyl)propionamide]	≥ 126	
CC1Oc2cc(F)c(CN3CCN(c4ccc(C(=O)O)cc4)CC3)cc2NC1=O (centres unmarked) [Compound 334, 4-(4-((7-Fluoro-2-methyl-3-oxo-3,4-dihydro-2H-benzo[b][1,4]oxazin-6-yl)methyl)piperazin-1-yl)benzoic acid]	> 200	
CC1Oc2ccc(CN3CC=C(c4ccc(F)cc4)CC3)cc2NC1=O (centres unmarked) [Compound 34, 6-((4-(4-Fluorophenyl)-5,6-dihydropyridin-1(2H)-yl)methyl)-2-methyl-2H-benzo[b][1,4]oxazin-3(4H)-one]		0.0126 to 0.1
O=C1COc2ccc(CNCc3ccccc3)cc2N1 [Compound 29, 6-((Benzylamino)methyl)-2H-benzo[b][1,4]oxazin-3(4H)-one]		1.26 to 10
CC1Oc2ccc(CN3CCC(c4ccc(C(=O)O)cc4)CC3)cc2NC1=O (centres unmarked) [Compound 216, 4-(1-((2-Methyl-3-oxo-3,4-dihydro-2H-benzo[b][1,4]oxazin-6-yl)methyl)piperidin-4-yl)benzoic acid]		1.26 to 10
O=C1COc2ccc(C(=O)CN3CCOCC3)cc2N1 [Compound 112, 6-(2-morpholinoacetyl)-2H-benzo[b][1,4]oxazin-3(4H)-one]		≥ 100

Compound	IC50 (PARP) [nM]	Kd [1] [µM]
CC1Oc2ccc(CN(C)CC(=O)O)cc2NC1=O (centres unmarked) [Compound 132, 2-(Methyl((2-methyl-3-oxo-3,4-dihydro-2H-benzo[b][1,4]oxazin-6-yl)methyl)amino)acetic acid]		1.26 to 10
CC1Oc2ccc(CN3CCN(c4ccccc4)CC3)cc2NC1=O (centres unmarked) [Compound 33, 2-Methyl-6-((4-phenylpiperazin-1-yl)methyl)-2H-benzo[b][1,4]oxazin-3(4H)-one]		0.126 to 1
CC1Oc2cc(CNc3ncc(-c4ccccc4)n3C)ccc2NC1=O (centres unmarked) [Compound 94, 2-Methyl-7-((1-methyl-5-phenyl-1H-imidazol-2-ylamino)methyl)-2H-benzo[b][1,4]oxazin-3(4H)-one]		1.26 to 10
CC1Oc2ccc(CN3CCN(CC(=O)O)CC3)cc2NC1=O (centres unmarked) [Compound 168, 2-(4-((2-Methyl-3-oxo-3,4-dihydro-2H-benzo[b][1,4]oxazin-6-yl)methyl)piperazin-1-yl)acetic acid]		≥ 100
O=C1COc2ccc(CCN3CCC(c4ccc(F)cc4)CC3)cc2N1 [Compound 130, 6-(2-(4-(4-Fluorophenyl)piperidin-1-yl)ethyl)-2H-benzo[b][1,4]oxazin-3(4H)-one]		1.26 to 10
CCNC(=O)CN1CCN(Cc2ccc3c(c2)NC(=O)C(C)O3)CC1 (centres unmarked) [Compound 178, N-Ethyl-2-(4-((2-methyl-3-oxo-3,4-dihydro-2H-benzo[b][1,4]oxazin-6-yl)methyl)piperazin-1-yl)acetamide]		> 10
CC1Oc2ccc(CN3CCc4ccccc4C3)cc2NC1=O (centres unmarked) [Compound 76, 6-((3,4-Dihydroisoquinolin-2(1H)-yl)methyl)-2-methyl-2H-benzo[b][1,4]oxazin-3(4H)-one]		0.126 to 1
O=C1COc2ccc(CCN3CC=C(c4ccc(Cl)cc4)CC3)cc2N1 [Compound 127, 6-(2-(4-(4-Chlorophenyl)-5,6-dihydropyridin-1(2H)-yl)ethyl)-2H-benzo[b][1,4]oxazin-3(4H)-one]		1.26 to 10
O=C1COc2ccc(C(=O)N3CCOCC3)cc2N1 [Compound 109, 6-(Morpholine-4-carbonyl)-2H-benzo[b][1,4]oxazin-3(4H)-one]		1.26 to 10
CC1Oc2ccc(CN3CCC(N(C4CC4)S(=O)(=O)c4ccccc4)CC3)cc2NC1=O (centres unmarked) [Compound 42, N-Cyclopropyl-N-(1-((2-methyl-3-oxo-3,4-dihydro-2H-benzo[b][1,4]oxazin-6-yl)methyl)piperidin-4-yl)benzenesulfonamide]		1.26 to 10
CC1Oc2ccc(CN3CCN(C4CCCCCC4)CC3)cc2NC1=O (centres unmarked) [Compound 51, 6-((4-Cycloheptylpiperazin-1-yl)methyl)-2-methyl-2H-benzo[b][1,4]oxazin-3(4H)-one]		0.126 to 1
CC1Oc2ccc(CN3CCN(Cc4cccc(Br)c4)CC3)cc2NC1=O (centres unmarked) [Compound 43, 6-((4-(3-Bromobenzyl)piperazin-1-yl)methyl)-2-methyl-2H-benzo[b][1,4]oxazin-3(4H)-one]		1.26 to 10
CCS(=O)(=O)c1ccc2c(c1)NC(=O)C(C)O2 (centres unmarked) [Compound 23, 6-(Ethylsulfonyl)-2-methyl-2H-benzo[b][1,4]oxazin-3(4H)-one]		12.6 to 79.4
CC1Oc2ccc(CN3CCC(c4ccc(F)cc4)CC3)cc2NC1=O (centres unmarked) [Compound 37, 6-((4-(4-Fluorophenyl)piperidin-1-yl)methyl)-2-methyl-2H-benzo[b][1,4]oxazin-3(4H)-one]		0.0126 to 0.1
O=C1COc2ccc(S(=O)(=O)N3CCOCC3)cc2N1 [Compound 116, 6-(Morpholinosulfonyl)-2H-benzo[b][1,4]oxazin-3(4H)-one]		12.6 to 79.4
CNC(=O)c1cccc(-c2ccc3c(c2)NC(=O)C(C)O3)c1 (centres unmarked) [Compound 143, N-Methyl-3-(2-methyl-3-oxo-3,4-dihydro-2H-benzo[b][1,4]oxazin-6-yl)benzamide]		> 10
O=C1COc2ccc(CN3CCOCC3)cc2N1 [Compound 26, 6-(Morpholinomethyl)-2H-benzo[b][1,4]oxazin-3(4H)-one]		1.26 to 10
O=C1COc2ccc(CNC3CCCCC3)cc2N1 [Compound 28, 6-((Cyclohexylamino)methyl)-2H-benzo[b][1,4]oxazin-3(4H)-one]		12.6 to 79.4
CC1Oc2ccc(CN3CCN(C)C(=O)C3)cc2NC1=O (centres unmarked) [Compound 79, 2-Methyl-6-((4-methyl-3-oxopiperazin-1-yl)methyl)-2H-benzo[b][1,4]oxazin-3(4H)-one]		> 10
